Data set [1] can be described thus: Stability in an aqueous solution of hydrochloric acid, half life. In kind it is physicochemical. The conditions noted are these: 37° C., 50 μM complex, in the dark. Here is the method:
Stability of each of the thus obtained complexes in an aqueous solution of hydrochloric acid at 37° C. is shown below in terms of its half life.
The measurement was carried out at a complex concentration of 50 μM at 37° C. in the dark.

In data set [2] the test system is L 1210. In kind it is in vivo, CDF1 mouse. The conditions noted are these: days 1, 5 and 9; for T/C %: 125 or more judged effective. As to the method:
ip: On the day 0, L 1210 (10^5 cells/mouse) was transplanted into the abdominal cavity of each CDF1 mouse, and each of the platinum complexes was intraperitoneally administered on the day 1, day 5 and day 9 (Q04D×03). Using 5 animals in one group, T/C % (T: treated, C: control) is calculated from survived days. A T/C % value of 125 or more was judged effective. The number of survived (or tumor bearing) animals is shown as n/5. A total of 10 mice were used in the control.
Carcinostatic effect ip--ip, L 1210, three administrations on days 1, 5 and 9
L 1210 (10^5 cells/mouse), one group=5 CDF1 mice, ip administration on the days 1, 5 and 9.

Data set [3] in a line: In vitro reduction by an ascorbic acid salt, half life. In kind it is physicochemical. The conditions noted are these: 50 μM complex, pH 7.5 (50 mM HEPES-NaOH), 37° C., dark; for Half life (reduction), 5 mM: 5 mM ascorbic acid salt; for Half life (reduction), 100 mM: 100 mM ascorbic acid salt. Here is the method:
Test results of the in vitro reduction of the thus obtained complexes by an ascorbic acid salt are shown below in terms of half life.
The measurement was carried out at a complex concentration of 50 μM, pH 7.5 (50 mM HEPES-NaOH buffer), at 37° C. in the dark.

The test system of data set [4] is L 1210. Put plainly: (Oral) carcinostatic effect L 1210, ip-po. In kind it is in vivo, CDF1 mouse. The conditions noted are these: Q02D×05, suspension in olive oil, 140% or more judged effective. Here is the method: po: On the day 0, L 1210 (10^5 cells/mouse) was transplanted into the abdominal cavity of each CDF1 mouse, and each of the platinum complexes was orally administered on the day 1, day 3, day 5, day 7 and day 9 (Q02D×05), or on the day 1 to day 5 (Q01D×05). The oral administration was carried out with a 10, 7.5 or 5 times higher dose than the optimum amount of each platinum complex by ip (T/C % of ip; 100 mg/kg, 75 mg/kg or 50 mg/kg, respectively). A value of 140% or more was judged effective.
(Oral) carcinostatic effect L 1210, ip-po, every two days Q02D×05
L 1210 (10^5 cells/mouse); one group=5 CDF1 mice; Suspension in olive oil was administered into the stomach through a catheter.

Data set [5] is described as follows: Behaviour in strongly acidic gastric juice (1 N HCl, pH 0.1). As to conditions: orally administered. In kind it is physicochemical.
The conditions of data set [6]: clinical trial; cited from earlier work.

The values that follow come from patent publication US6008395A, “Platinum (IV) complex, production process thereof and carcinostatic agent containing the same” (priority 1995, dated 1999).

Read-outs that look alike come from different tables or passages of the source. A value given as a limit tells only on which side of the number the result lay.

In the case of `CCCC(=O)[O-].NC1CCCCC1N.O=C([O-])C(=O)[O-].[Cl-].[Pt+4]` [C4--OHP · Cl, [PtCl(OCOC3 H7) (oxalato) (lR,2R-dach)]], the “Half life, 0.05 M HCl” value in data set [1] is over 50 h. Also, the “Half life, 1 M HCl” value in data set [1] came out at 6.1 h. In addition, the T/C % in the data set on L 1210 [2] (12.5 mg/kg ip) stood at 130%; with L 1210 [2] (25 mg/kg ip) it was 145%; in the data set on L 1210 [2] (50 mg/kg ip), 195%; in the data set with L 1210 [2] (100 mg/kg ip), 63%. Also, the “Half life (reduction), 5 mM” value in data set [3] worked out at 0.6 h. In addition, the “Half life (reduction), 100 mM” value in data set [3] was under 6 min.
Regarding `CCCCC(=O)[O-].NC1CCCCC1N.O=C([O-])C(=O)[O-].[Cl-].[Pt+4]` [C5--OHP · Cl, t,t,c,c-[PtCl(OCOC4 H9)(ox)(1R,2R-dach)]], the “Half life, 0.05 M HCl” value in data set [1] is over 50 h. Also, in data set [1], the “Half life, 1 M HCl” value was determined as 7.4 h. In addition, the T/C % stood at 168% with L 1210 [2] (25 mg/kg ip); 283% in the data set with L 1210 [2] (50 mg/kg ip); 88% in the data set on L 1210 [2] (100 mg/kg ip); 140% with L 1210 [4] (2.5 mg/kg po); 214% with L 1210 [4] (5 mg/kg po); 143% with L 1210 [4] (10 mg/kg po). The T/C % in the data set on L 1210 [4] (15 mg/kg po) is listed as 60%. The “number of survived (or tumor bearing) animals (n/5)” value (“number of survived” below) in the data set with L 1210 [2] (50 mg/kg ip) is recorded as 4/5. In data set [3], the “Half life (reduction), 5 mM” value was determined as 0.8 h. Also, the “Half life (reduction), 100 mM” value in data set [3] is under 6 min.
`CCCCCC(=O)[O-].CCCCCC(=O)[O-].NC1CCCCC1N.O=C([O-])C(=O)[O-].[Pt+4]` [Complex C6-ORP, t,c,c-[Pt (OCOC5 H11)2 (ox) (1R,2R-dach)]]: the “one carboxylic acid substituted by Cl” value in data set [5] is “gradually substituted by Cl”.
Regarding `CCCCCC(=O)[O-].NC1CCCCC1N.O=C([O-])C(=O)[O-].[Cl-].[Pt+4]` [C6--OHP · Cl, [PtCl (OCOC5 H11) (oxalato) (1R,2R-dach)]], the “Half life, 0.05 M HCl” value in data set [1] is listed as “N.D. (significant decrease in concentration was not observed)”. The “Half life, 1 M HCl” value in data set [1] came to 8.9 h. Moreover, the T/C % came to 173% in the data set with L 1210 [2] (25 mg/kg ip); 280% in the data set with L 1210 [2] (50 mg/kg ip); 80% with L 1210 [2] (100 mg/kg ip); 143% with L 1210 [4] (2.5 mg/kg po); 191% in the data set with L 1210 [4] (5 mg/kg po); 168% with L 1210 [4] (10 mg/kg po). Further, the T/C % with L 1210 [4] (15 mg/kg po) is 98%. Moreover, the “number of survived” value in the data set with L 1210 [2] (50 mg/kg ip) is on record as 1/5. Further, the “Half life (reduction), 5 mM” value in data set [3] is 1.2 h. Also, the “Half life (reduction), 100 mM” value in data set [3] was under 6 min.
Regarding `CCCCC(=O)O.CCCCC(=O)O.N[C@@H]1CCCC[C@H]1N.O=C(O)C(=O)O.[Pt]` [Complex C5-OHP, t,c,c-[Pt (OCOC4 H9)2 (ox) (1R,2R-dach)]], the “one carboxylic acid substituted by Cl” value in data set [5] is “gradually substituted by Cl”.
In the case of `CCCCCCC(=O)[O-].NC1CCCCC1N.O=C([O-])C(=O)[O-].[Cl-].[Pt+4]` [C7--OHP · Cl, [PtCl(OCOC6 H13) (oxalato) (1R,2R-dach)]], the “Half life, 0.05 M HCl” value in data set [1] is recorded as “N.D. (significant decrease in concentration was not observed)”. Also, in data set [1], the “Half life, 1 M HCl” value amounted to 11.3 h. The T/C % with L 1210 [2] (12.5 mg/kg ip) was found to be 122%; with L 1210 [2] (25 mg/kg ip), 137%; in the data set on L 1210 [2] (50 mg/kg ip) it was 176%; in the data set with L 1210 [4] (2.5 mg/kg po) it was 117%; in the data set on L 1210 [4] (5 mg/kg po), 129%; in the data set with L 1210 [4] (10 mg/kg po), 151%. Further, in data set [3], the “Half life (reduction), 5 mM” value is 1.6 h. In addition, in data set [3], the “Half life (reduction), 100 mM” value was under 6 min.
On to `CCCC(=O)[O][Pt]12([O]C(=O)CCC)([NH]C3CCCCC3[NH]1)[O]C(=O)C(=O)[O]2` [Complex C4-OHP, t,c,c-[Pt (OCOC3 H7)2 (ox) (1R,2R-dach)]], for which the “one carboxylic acid substituted by Cl” value in data set [5] is reported as “gradually substituted by Cl”.
Turning to `CCCCC(=O)[O-].NC1CCCCC1N.O=C([O-])C(=O)[O-].[Br-].[Pt+4]` [C5--OHP · Br, t,t,c,c-[PtBr(OCOC4 H9)(ox)(1R,2R-dach)]], in the data set on L 1210 [2] (25 mg/kg ip), the “number of survived” value is 4/5. The T/C % with L 1210 [2] (25 mg/kg ip) worked out at 395%; with L 1210 [2] (50 mg/kg ip), 107%; in the data set on L 1210 [4] (5 mg/kg po) it was 160%; in the data set on L 1210 [4] (10 mg/kg po) it was 163%; in the data set on L 1210 [4] (15 mg/kg po), 73%.
Regarding `N[C@@H]1CCCC[C@H]1N.[Cl][Pt+2]([Cl])([Cl])[Cl]` [tetraplatin], the “clinical development / side effects” value in data set [6] is given as “clinical development has been suspended due to the side effects, such as toxicity”.
As to `CCCCCC(=O)[O-].NC1CCCCC1N.O=C([O-])C(=O)[O-].[Br-].[Pt+4]` [C6--OHP · Br], in the data set on L 1210 [2] (25 mg/kg ip), the “number of survived” value was 4/5. The T/C % is listed as 373% with L 1210 [2] (25 mg/kg ip); 96% in the data set on L 1210 [2] (50 mg/kg ip); 69% in the data set with L 1210 [2] (100 mg/kg ip); 173% in the data set with L 1210 [4] (5 mg/kg po); 180% with L 1210 [4] (10 mg/kg po); 88% with L 1210 [4] (15 mg/kg po).
